The subject of assay [1] is Sonnenblume Linie BK 119. As to the kind of experiment: Field test of pollen sterilisation, sunflower line BK 119. It counts as in vivo. The text has this: (§1) Die gametozide Aktivität der erfindungsgemäßen Sterilisationsmittel war in Feldversuchen in verschiedenen bodenklimatischen Zonen mit Teilstücken von 10 m^2 Größe in dreibis viermaliger Wiederholung festgestellt. Jedes Sterilisationsmittel wurde mindenstens 5 Jahre lang geprüft.
(§2) Die Entwicklung der Perioden der Organogenese wird zytologisch überwacht. Die Behandlung von Pflanzen mit dem Sterilisationsmittel erfolgt am Anfang der fünften Periode der Organogenese nach Kupermann.
Zur Kontrolle der chemischen Sterilisation des Sonnenblumenpollens werden für jede Verbindung 45 behandelte Pflanzen je Wiederholung benutzt, wobei 15 Pflanzen zwecks Selbstbestäubung des Blütenkörbchens isoliert werden, 15 Pflanzen mit einem Pollengemisch, gesammelt von 20 bis 25 behandelten isolierten Körbchen, bestäubt werden, und 15 Pflanzen für freie Bestäubung gelassen werden, damit das Ansetzen von Achänen mit dem Pollen der Vaterform kontrolliert worden kann.
Man beurteilt die Pollensterilität von Pflanzen der Sonnenblume nach der Pollenfertilität und -keimfähigkeit, nach den morphologischen Besonderheiten von Spermien und nach der Fähigkeit von Achänen […] bei der Bestäubung der behandelten isolierten Pflanzen mit dem Pollen der unbehandelten väterlichen Form. Die Lebensfähigkeit der Eizelle wird nach der Samenbildung bei behandelten Pflanzen bei freier Bestäubung der väterlichen Form bestimmt.
Pflanzen der Sonnenblume Linie BK 119 werden mit einer 0,2%igen wäßrigen Emulsion von 1,1,3-Tribrompropan bzw. 1,2-Dibrompropan behandelt. Die Emulsion enthält 0,5 Masse% C12-C14 Natriumalkylbenzolsulfonat und 0,01 Masse% Dimethylformamid als Adjuvans. Der Verbrauch an Präparat beträgt 1,2 kg/ha bei 600 1 Wasserdurchsatz. Die Prüfergebnisse sind in der Tabelle 17 angegeben. Die gleichen Ergebnisse sind bei der Behandlung von Sonnenblume Linie BK in der VI. Periode der Organogenese erhalten.
Man verführt analog den Beispielen 88-89. Als Sterilisationsmittel dient eine 0,1%ige wäßrige Emulsion von 1,2--Dibrom-3-chlorpropan. Der Verbrauch an Präparat beträgt 0,6 kg/ha bei 600 1 Wasserdurchsatz. Die Prüfergebnisse sind in der Tabelle 17 angegeben.

Assay [2] has as its system tetraploidem Roggen Belta. Kind of assay: Field test of gametocidal activity, tetraploid rye Belta. It counts as in vivo. The conditions noted are these: period V, 1% aqueous emulsion, 6 kg/ha in 600 l water; for Prozentsatz des Ansetzens von Samen bei freier Bestäubung: control = 100.
Source text: as §1, §2
(§3) Mit dem Ährenschieben verwirklicht man die Isolierung von Hauptähren und anderen Stockwerken in Pergametbeuteln. Bei Weizen und Tritikale werden Einzelisolatoren benutzt. Bei Roggen schließt man je 1 Ähre von […] verschiedenen nebeneinander befindlichen Pflanzen unter einen gemeinsamen Isolator ein. Bei Hirse wird jede Rispe getrennt isoliert. Der Sterilitätsprozentsatz (X) für Weizen, Roggen, Tritikale und Hirse wird nach der Formel [formula] ermittelt.
(§4) Die Kornzahl in nicht isolierten Ähren von Kontrollpflanzen wird bedingt für 100 % Ansetzen bei freier Bestäubung angenommen.
(§5) Um zuverlässige Angaben zu erhalten, verwendet man 20 bis 25 Isolatoren je Wiederholung für Weizen und Tritikale, 10 bis 15 Isolatoren jeder Wiederholung für Roggen und Hirse.
Pflanzen von tetraploidem Roggen Belta werden in der V.Periode der Organogenese (nach Kupermann) mit einer 1%igen wäßrigen Emulsion von 1,1,3-Tribrompropan, 1,1,3--Tribrom-4-chlorbutan, 1,1,2,3-Tetrabrompropan, 1,2,3-Tribrompropan, 1,1,3-Tribrom-3-chlorpropan bzw. 1,2-Dibrom--3-chlorpropan behandelt.
Die Emulsion enthält 0,5 Masse% C12-C14-Kalziumalk^yl-benzolsulfonat und 0,01 Masse% Dimethylsulfoxid. Der Verbrauch an Präparat beträgt 6 kg/ha bei 600 1 Wasserdurchsatz.Die Prüfergebnisse sind in der Tabelle 7 angegeben. Die gleichen Ergebnisse sind bei der Behandlung von tetraploidem Roggen Belta in der VI. Periode der Organogenese erhalten.

The subject of assay [3] is diploidem Roggen Gibrid 1864/79. As to the kind of experiment: Field test of gametocidal activity, diploid rye Gibrid 1864/79. It counts as in vivo. The conditions noted are these: period V, 1% aqueous emulsion, 6 kg/ha in 600 l water; for Prozentsatz des Ansetzens von Samen bei freier Bestäubung: control = 100.
Source text: as §1, §2, §3, §4, §5
Pflanzen von diploidem Roggen Gibrid 1864/79 werden in der V. Periode der Organogenese mit einer l%igen wäßrigen Emulsion von 1,2,3-Tribrompropan, 1,2-Dibrompropan, 1,1,1,3--Tetrabromheptan, 1,1,3-Tribromheptan behandelt. Die Emulsion enthält 0,5 Masse% C12-C14-Kalziumalkylbenzolsulfonat und 0,01 Masse% Äthylenglykol. Der Verbrauch an Präparat beträgt 6 kg/ha bei 600 1 Wasserdurchsatz. Die Prüfergebnisse sind in der Tabelle 12 angegeben. Die gleichen Ergebnisse sind bei der Behandlung von diploidem Roggen Gibrid 1864/79 in der VI. Periode der Organogenese erhalten.

In assay [4] the test system is tetraploidem Roggen Jubileinaya. As to the kind of experiment: Field test of gametocidal activity, tetraploid rye Jubileinaya. It counts as in vivo. The conditions noted are these: period V, 1% aqueous emulsion, 8 kg/ha in 800 l water; for Prozentsatz des Ansetzens Samen bei freier Bestäubung: control = 100.
Source text: as §1, §2, §3, §4, §5
Pflanzen von tetraploidem Roggen Jubileinaya werden in der V. Periode der Organogenese mit einer 1%igen wäßrigen Emulsion von 1,2,3-Tribrompropan, 1,2-Dibrompropan bzw. 1,2-Dibrom-3-chlorpropan behandelt. Die Emulsion enthält 0,5 Masse% C12-C14-Kalziumalkylbenzolsulfonat und 0,01 Masse% Dodezylsulfat. Der Verbrauch an Präparat beträgt 8 kg/ha bei 800 1 Wasserdurchsatz. Die Prüfergebnisse sind in der Tabelle 9 angegeben. Die gleichen Ergebnisse sind bei der Behandlung von tetraploidem Roggen Jubileinaya in der VI. Periode der Organogenese erhalten.

Assay [5] relates to Sommerweizens Sorte Rodina. Kind of assay: Field test of gametocidal activity, spring wheat Rodina. It counts as in vivo, Weizen. The settings on record: period V, 1% aqueous emulsion, 6 kg/ha in 600 l water; for Prozentsatz des Ansetzens von freier Bestäubung: control = 100.
Source text: as §1, §2, §3, §4, §5
Pflanzen des Sommerweizens Sorte Rodina werden in der V.Periode der Organogenese (nach Kupermann) mit einer l%igen wäßrigen Emulsion von 1,3-Dibrompropan, 1,1,1,3-Tetrabromheptan, 1,1,3-Tribromheptan bzw. 1,2-Dibromheptan behandelt. Die Emulsion enthalt 0,5 Masse% C12-C14 Kalziumalk^ylbenzol- sulfonat und 0,01 Masse% Dodezylsulfat. Der Verbrauch an Präparat beträgt 6 Kg/ha bei 600 1 Wasserdurchsatz. Als Kontrolle dienen Pflanzen, behandelt mit dem Verdünner ohne Sterilisationsmittel.
Die Prüfergebnisse sind in der Tabelle 3 angegeben. Die gleichen Ergebnisse sind bei der Behandlung des Sommerweizens Sorte Rodina in der VI. Periode der Organogenese erhalten.

The subject of assay [6] is Tritikale PRAG-109. As to the kind of experiment: Field test of gametocidal activity, triticale PRAG-109. The class given is in vivo. The conditions noted are these: period V, 1% aqueous emulsion, 6 kg/ha in 600 l water; for Prozentsatz des Ansetzens von Samen bei freier Bestäubung: control = 100.
Source text: as §1, §2, §3, §4, §5
Pflanzen von Tritikale PRAG-109 werden in der V.Periode der Organogenese (nach Kupermann) mit einer 1%igen wäßrigen Emulsion von 1,1,1,3-Tetrabromheptan, 1,1,3-Tribromheptan, 1,2,3-Tribrompropan bzw. 1,2-Dibrom-3-chlor- propan behandelt. Die Emulsion enthält 0,5 Masse% C12-C14--Kalziumalkylbenzolsulfonat und 0,01 Masse% Dodezylsulfat. Der Verbrauch an Präparat beträgt 6 kg/ha bei 600 1 Wasserdurchsatz. Als Kontrolle dienen Pflanzen, behandelt mit dem Verdünner ohne Sterilisationsmittel. Die Prüfergebnisse sind in der Tabelle 5 angegeben. Die gleichen Ergebnisse sind bei der Behandlung von Tritikale PRAG-109 in der VI. Periode der Organogenese erhalten.

[7] abbreviates: 0.2% aqueous emulsion, 1.2 kg/ha in 600 l water.
[8] abbreviates: 0.1% aqueous emulsion, 0.6 kg/ha in 600 l water.

SMILES strings stand for the structures.

This is an account of results in patent publication EP0358766A1, “METHOD OF STERILIZING PLANT ANTHERS” (VSESOJUZNY NAUCHNO-ISSLEDOVATELSKY INST. SELSKOKHOZYAISTV. …, priority 1988, dated 1989).

With `BrCCC(Br)Br` [Beispiel 1, 1,1,3-Tribrompropan], in assay [1] (setting [7]), the “Ansetzen bei freier Bestäubung in %” value was 80,4%, the “Ansetzen im Isolator bei Pollengemischbestäubung in %” value is 0,0% and the Pollenstesterilität in % is on record as 100,0%. Moreover, in assay [2], the “Kornzahl der Ähre bei freier Bestäubung” value is 34,5, the “Kornzahl der Ähre im Isolator” value was 1,2, the “Prozentsatz der Sterilität” value is recorded as 97,0% and the “Prozentsatz des Ansetzens von Samen bei freier Bestäubung” value was 78,1%.

As to `CC(Br)CBr` (centres unmarked) [Beispiel 5, 1,2-Dibrompropan], in assay [3], the “Kornzahl der Ähre bei freier Bestäubung” value is 46,4, the “Kornzahl der Ähre unter Isolator” value was 0,0, the “Prozentsatz der Sterilität” value is recorded as 100,0% and the “Prozentsatz des Ansetzens von Samen bei freier Bestäubung” value is 97,1%. In assay [1] (setting [7]), the “Ansetzen bei freier Bestäubung in %” value is reported as 88,2%, the “Ansetzen im Isolator bei Pollengemischbestäubung in %” value is 0,0% and the Pollenstesterilität in % was 100,0%. Also, in assay [4], the “Kornzahl der Ähre bei freier Bestäubung” value is 48,1, the “Kornzahl der Ähre unter Isolator” value is recorded as 0,0, the “Prozentsatz der Sterilität” value is recorded as 100,0% and the “Prozentsatz des Ansetzens Samen bei freier Bestäubung” value is 91,2%.

Regarding `CCCCC(Br)CC(Br)(Br)Br` (centres unmarked) [Beispiel 9, 1,1,1,3-Tetrabromheptan], in assay [3], the “Kornzahl der Ähre bei freier Bestäubung” value is on record as 49,2, the “Kornzahl der Ähre unter Isolator” value was 0,0, the “Prozentsatz der Sterilität” value was 100,0% and the “Prozentsatz des Ansetzens von Samen bei freier Bestäubung” value is listed as 103,0%. In addition, in assay [5], the “Kornzahl der Ähre bei freier Bestäubung” value is listed as 35,4, the “Kornzahl der Ähre im Isolator” value is recorded as 0,0, the “Prozentsatz der Sterilität” value is 100,0% and the “Prozentsatz des Ansetzens von freier Bestäubung” value is listed as 87,6%. Moreover, in assay [6], the “Kornzahl der Ähre bei freier Bestäubung” value is on record as 61,8, the “Kornzahl der Ähre im Isolator” value is given as 0,0, the “Prozentsatz der Sterilität” value is given as 100,0% and the “Prozentsatz des Ansetzens von Samen bei freier Bestäubung” value is recorded as 89,6%.

As for `BrCC(Br)CBr` [Beispiel 4, 1,2,3-Tribrompropan], in assay [3], the “Kornzahl der Ähre bei freier Bestäubung” value was 42,1, the “Kornzahl der Ähre unter Isolator” value was 0,0, the “Prozentsatz der Sterilität” value is 100,0% and the “Prozentsatz des Ansetzens von Samen bei freier Bestäubung” value is reported as 88,0%. Besides, in assay [2], the “Kornzahl der Ähre bei freier Bestäubung” value is listed as 42,0, the “Kornzahl der Ähre im Isolator” value is 0,0, the “Prozentsatz der Sterilität” value is recorded as 100,0% and the “Prozentsatz des Ansetzens von Samen bei freier Bestäubung” value was 95,0%. In assay [4], the “Kornzahl der Ähre bei freier Bestäubung” value was 47,6, the “Kornzahl der Ähre unter Isolator” value is recorded as 0,1, the “Prozentsatz der Sterilität” value is recorded as 99,8% and the “Prozentsatz des Ansetzens Samen bei freier Bestäubung” value is on record as 90,3%. For the same molecule, in assay [6], the “Kornzahl der Ähre bei freier Bestäubung” value is given as 40,5, the “Kornzahl der Ähre im Isolator” value is given as 0,2, the “Prozentsatz der Sterilität” value is 99,5% and the “Prozentsatz des Ansetzens von Samen bei freier Bestäubung” value is listed as 88,4%.

As for `ClCC(Br)CBr` (centres unmarked) [Beispiel 7, 1,2-Dibrom-3-chlorpropan], in assay [1] (setting [8]), the “Ansetzen bei freier Bestäubung in %” value is reported as 82,0%, the “Ansetzen im Isolator bei Pollengemischbestäubung in %” value was 0,0% and the Pollenstesterilität in % was 100,0%. Also, in assay [2], the “Kornzahl der Ähre bei freier Bestäubung” value was 37,4, the “Kornzahl der Ähre im Isolator” value is 0,0, the “Prozentsatz der Sterilität” value was 100,0% and the “Prozentsatz des Ansetzens von Samen bei freier Bestäubung” value is given as 84,6%. In assay [4], the “Kornzahl der Ähre bei freier Bestäubung” value was 50,2, the “Kornzahl der Ähre unter Isolator” value is listed as 0,4, the “Prozentsatz der Sterilität” value is 99,2% and the “Prozentsatz des Ansetzens Samen bei freier Bestäubung” value is on record as 95,2%. In assay [6], the “Kornzahl der Ähre bei freier Bestäubung” value is reported as 42,6, the “Kornzahl der Ähre im Isolator” value is 1,1, the “Prozentsatz der Sterilität” value is 97,3% and the “Prozentsatz des Ansetzens von Samen bei freier Bestäubung” value is recorded as 93,0%.

As for `CCCCC(Br)CC(Br)Br` (centres unmarked) [Beispiel 10, 1,1,3-Tribromheptan], in assay [3], the “Kornzahl der Ähre bei freier Bestäubung” value is given as 52,6, the “Kornzahl der Ähre unter Isolator” value is reported as 0,0, the “Prozentsatz der Sterilität” value is recorded as 100,0% and the “Prozentsatz des Ansetzens von Samen bei freier Bestäubung” value is listed as 109,8%. In addition, in assay [5], the “Kornzahl der Ähre bei freier Bestäubung” value is given as 33,8, the “Kornzahl der Ähre im Isolator” value is 0,0, the “Prozentsatz der Sterilität” value was 100,0% and the “Prozentsatz des Ansetzens von freier Bestäubung” value is on record as 83,7%. Moreover, in assay [6], the “Kornzahl der Ähre bei freier Bestäubung” value is listed as 59,6, the “Kornzahl der Ähre im Isolator” value is listed as 0,0, the “Prozentsatz der Sterilität” value is on record as 100,0% and the “Prozentsatz des Ansetzens von Samen bei freier Bestäubung” value is 86,4%.

On to `CCCCCC(Br)CBr` (centres unmarked) [Beispiel 11, 1,2-Dibromheptan], for which, in assay [5], the “Kornzahl der Ähre bei freier Bestäubung” value is given as 32,7, the “Kornzahl der Ähre im Isolator” value is recorded as 0,0, the “Prozentsatz der Sterilität” value is listed as 100,0% and the “Prozentsatz des Ansetzens von freier Bestäubung” value was 80,9%.
